Results from patent publication US11173160B2 (UNIVERSITY OF PITTSBURGH—OF THE COMMONWEALTH SYSTEM OF …, priority 2019, dated 2021).
“Also recorded” adds a separate entry of the source.

Assays:
MKK6 = MKK6 (Homo sapiens, UniProt P52564); details: cited from earlier work
CDK6 = CDK6 (Homo sapiens, UniProt Q00534); details: cited from earlier work
Src = Src (Homo sapiens, UniProt P12931); details: cited from earlier work
[1] = cited from earlier work
CaMKVI = CaMKVI (Homo sapiens, UniProt Q16566); details: cited from earlier work
JAK1 = JAK1 (Homo sapiens, UniProt P23458); details: Source Invitrogen; 10-point titration in duplicates, done once; cited from earlier work
CDK3 = CDK3 (Homo sapiens, UniProt Q00526); details: Source Millipore; 10-point titration in duplicates, done once; cited from earlier work
Chk1 = Chk1 (Homo sapiens, UniProt O14757); details: cited from earlier work
PAK2 = PAK2 (Homo sapiens, UniProt Q13177); details: cited from earlier work
CK1α1 = CK1α1 (Homo sapiens, UniProt P48729); details: cited from earlier work
Aurora B = Aurora B (Homo sapiens, UniProt Q96GD4); details: cited from earlier work
PDK1 = PDK1 (Homo sapiens, UniProt O15530); details: cited from earlier work
IKK-β = IKK-β (Homo sapiens, UniProt O14920); details: cited from earlier work
MYCN in DIPG-13p cells = test: MYCN transcript (qRT-PCR) and protein (Western blot); assay type: cell-based, human; details: DIPG-13p cells (MYCN amplification)
Procedure: FIG. 14E provides Western blot confirming MYCN protein levels decrease in DIPG-13p cells from FIG. 14E.
Total RNA isolation was performed using an RNA extraction kit according to the manufacturer's instructions (RNeasy kit, Qiagen). cDNA was synthesized from 100 ng of total RNA using the Quantitect RT kit which included DNAse treatment (Qiagen). Quantitative real-time PCR was performed on 10 ng of cDNA template in a final volume of 20 μl using the Chromo4 Real Time PCR detector (MJ Research, a Division of Bio-Rad Laboratories Ltd) using SYBR green fluorescence. RT-PCR data was analyzed using Opticon Monitor 3.1.3 analysis software. Data analysis was done using the delta CT method with HPRT1 as a reference/control gene. Specific Primers are available in Table 4.

[2] = system: DIPG-13p and SF8628 cells; test: cell growth and Annexin-PI apoptosis assay; assay type: cell-based, human
Procedure: FIG. 12E provides Annexin-PI quantification of DIPG cells treated in biological triplicates with ERK5 inhibitors at 48 h from (FIGS. 12C-12D).
Apoptosis was quantified using the Pacific Blue Annexin V Apoptosis Detection Kit with propidium iodide (BioLegend, San Diego, Calif. Cat #640926). Analysis was performed at the Flow Cytometry Core, Rangos Research Center, UPMC Children's Hospital of Pittsburgh.

Aurora A = Aurora A (Homo sapiens, UniProt O14965); details: cited from earlier work
[3] = molecular target: (Homo sapiens, UniProt O15264); details: Source Invitrogen; 10-point titration in duplicates, done once; cited from earlier work
PKA = PKA (Homo sapiens, UniProt P17612); details: cited from earlier work
PDGFRβ = PDGFRβ (Homo sapiens, UniProt P09619); details: cited from earlier work

PAK2, sequence (Q13177 whole entry): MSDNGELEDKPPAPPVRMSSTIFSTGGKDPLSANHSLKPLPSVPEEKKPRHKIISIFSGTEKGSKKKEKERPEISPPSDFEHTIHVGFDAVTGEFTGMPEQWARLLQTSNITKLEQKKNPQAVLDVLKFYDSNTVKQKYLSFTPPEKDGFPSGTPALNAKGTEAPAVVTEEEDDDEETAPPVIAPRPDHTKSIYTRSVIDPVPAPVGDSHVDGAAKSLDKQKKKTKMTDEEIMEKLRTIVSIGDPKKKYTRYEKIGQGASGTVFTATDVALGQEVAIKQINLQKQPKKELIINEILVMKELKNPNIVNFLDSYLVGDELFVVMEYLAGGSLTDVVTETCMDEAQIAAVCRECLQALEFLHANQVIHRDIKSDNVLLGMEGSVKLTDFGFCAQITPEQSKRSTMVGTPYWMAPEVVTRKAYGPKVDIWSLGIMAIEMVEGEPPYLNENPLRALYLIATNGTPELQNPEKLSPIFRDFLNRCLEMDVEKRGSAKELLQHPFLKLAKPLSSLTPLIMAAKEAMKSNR
Chk1, sequence (O14757 whole entry): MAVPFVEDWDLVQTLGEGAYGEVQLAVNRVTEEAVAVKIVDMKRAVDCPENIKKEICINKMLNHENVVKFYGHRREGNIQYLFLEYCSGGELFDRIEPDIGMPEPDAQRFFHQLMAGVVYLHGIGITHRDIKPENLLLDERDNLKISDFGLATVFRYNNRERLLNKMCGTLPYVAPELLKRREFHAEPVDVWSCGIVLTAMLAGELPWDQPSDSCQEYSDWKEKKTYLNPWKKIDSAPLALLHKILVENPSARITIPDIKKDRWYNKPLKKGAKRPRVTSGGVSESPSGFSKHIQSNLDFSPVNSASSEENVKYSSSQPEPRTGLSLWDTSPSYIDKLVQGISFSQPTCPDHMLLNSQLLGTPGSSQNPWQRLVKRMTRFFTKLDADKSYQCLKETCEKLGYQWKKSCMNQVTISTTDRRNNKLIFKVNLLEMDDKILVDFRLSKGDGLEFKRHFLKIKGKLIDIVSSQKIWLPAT
CDK3, sequence (Q00526 whole entry): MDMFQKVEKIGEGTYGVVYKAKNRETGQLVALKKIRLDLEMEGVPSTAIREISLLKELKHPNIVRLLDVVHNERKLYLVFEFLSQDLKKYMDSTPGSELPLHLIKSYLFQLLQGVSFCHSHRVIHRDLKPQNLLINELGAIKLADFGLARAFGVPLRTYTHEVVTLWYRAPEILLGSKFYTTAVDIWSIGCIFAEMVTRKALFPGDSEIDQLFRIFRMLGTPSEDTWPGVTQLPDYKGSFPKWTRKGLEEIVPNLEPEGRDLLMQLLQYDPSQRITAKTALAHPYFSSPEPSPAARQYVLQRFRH
CDK3, sequence (P24864 whole entry partner): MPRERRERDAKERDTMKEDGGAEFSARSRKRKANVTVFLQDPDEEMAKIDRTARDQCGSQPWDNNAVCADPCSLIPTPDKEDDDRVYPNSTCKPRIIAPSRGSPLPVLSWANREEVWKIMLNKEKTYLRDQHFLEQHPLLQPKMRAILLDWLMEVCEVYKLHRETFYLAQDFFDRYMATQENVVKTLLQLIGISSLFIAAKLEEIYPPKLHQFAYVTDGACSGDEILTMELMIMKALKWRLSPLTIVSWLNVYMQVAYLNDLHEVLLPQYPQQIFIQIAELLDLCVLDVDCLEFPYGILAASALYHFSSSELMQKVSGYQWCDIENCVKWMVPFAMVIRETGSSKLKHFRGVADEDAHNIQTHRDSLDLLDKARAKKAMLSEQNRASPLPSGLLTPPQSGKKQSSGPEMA
(Homo sapiens, UniProt O15264), sequence (O15264 whole entry): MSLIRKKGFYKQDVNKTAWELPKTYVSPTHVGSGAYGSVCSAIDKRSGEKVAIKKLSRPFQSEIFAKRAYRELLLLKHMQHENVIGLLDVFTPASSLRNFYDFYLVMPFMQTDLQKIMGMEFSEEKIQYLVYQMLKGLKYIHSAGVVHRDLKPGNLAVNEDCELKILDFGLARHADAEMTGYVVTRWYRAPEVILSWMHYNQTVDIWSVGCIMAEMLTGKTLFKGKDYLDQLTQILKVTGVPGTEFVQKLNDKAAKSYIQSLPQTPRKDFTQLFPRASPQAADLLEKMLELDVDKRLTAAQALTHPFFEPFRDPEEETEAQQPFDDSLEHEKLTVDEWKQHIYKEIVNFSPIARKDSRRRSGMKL
IKK-β, sequence (O14920 whole entry): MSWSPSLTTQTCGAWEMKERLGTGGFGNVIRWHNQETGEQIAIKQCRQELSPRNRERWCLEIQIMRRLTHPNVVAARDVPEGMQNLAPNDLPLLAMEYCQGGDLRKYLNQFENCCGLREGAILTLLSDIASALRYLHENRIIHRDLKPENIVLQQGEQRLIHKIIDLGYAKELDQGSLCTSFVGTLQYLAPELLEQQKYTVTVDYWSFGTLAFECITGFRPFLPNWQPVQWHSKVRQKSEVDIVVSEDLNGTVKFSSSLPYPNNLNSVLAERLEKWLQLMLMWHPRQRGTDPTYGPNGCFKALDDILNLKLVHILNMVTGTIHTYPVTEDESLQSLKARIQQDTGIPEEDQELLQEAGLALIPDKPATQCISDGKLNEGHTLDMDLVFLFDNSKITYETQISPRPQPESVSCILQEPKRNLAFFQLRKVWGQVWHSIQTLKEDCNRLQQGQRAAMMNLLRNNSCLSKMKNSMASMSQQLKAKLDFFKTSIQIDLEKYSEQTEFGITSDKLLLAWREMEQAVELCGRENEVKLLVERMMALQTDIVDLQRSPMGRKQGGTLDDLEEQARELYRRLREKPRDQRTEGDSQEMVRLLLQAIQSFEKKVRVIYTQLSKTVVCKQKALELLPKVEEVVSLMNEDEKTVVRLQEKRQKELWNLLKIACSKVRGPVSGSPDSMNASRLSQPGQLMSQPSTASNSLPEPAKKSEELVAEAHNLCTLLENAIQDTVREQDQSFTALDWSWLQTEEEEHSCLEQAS
Aurora B, sequence (Q96GD4 whole entry): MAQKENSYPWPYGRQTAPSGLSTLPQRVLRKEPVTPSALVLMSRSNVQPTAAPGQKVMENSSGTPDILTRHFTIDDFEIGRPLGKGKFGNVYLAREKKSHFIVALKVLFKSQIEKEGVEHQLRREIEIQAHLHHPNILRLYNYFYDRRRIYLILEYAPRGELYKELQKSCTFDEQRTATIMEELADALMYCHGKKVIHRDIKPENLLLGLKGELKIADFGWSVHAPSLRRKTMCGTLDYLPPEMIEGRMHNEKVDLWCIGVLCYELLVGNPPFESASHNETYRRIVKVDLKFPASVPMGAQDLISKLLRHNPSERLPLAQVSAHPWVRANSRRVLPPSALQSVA
CK1α1, sequence (P48729 whole entry): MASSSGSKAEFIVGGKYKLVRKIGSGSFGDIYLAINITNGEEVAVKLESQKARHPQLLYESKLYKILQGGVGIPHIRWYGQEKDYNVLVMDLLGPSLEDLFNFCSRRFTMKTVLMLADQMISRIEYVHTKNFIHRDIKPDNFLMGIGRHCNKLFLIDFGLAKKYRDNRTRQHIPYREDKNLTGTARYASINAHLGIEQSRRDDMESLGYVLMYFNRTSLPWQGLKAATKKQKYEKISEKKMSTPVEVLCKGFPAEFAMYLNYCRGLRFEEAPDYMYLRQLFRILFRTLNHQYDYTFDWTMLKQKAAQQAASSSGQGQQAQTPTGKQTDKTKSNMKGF
JAK1, sequence (P23458 whole entry): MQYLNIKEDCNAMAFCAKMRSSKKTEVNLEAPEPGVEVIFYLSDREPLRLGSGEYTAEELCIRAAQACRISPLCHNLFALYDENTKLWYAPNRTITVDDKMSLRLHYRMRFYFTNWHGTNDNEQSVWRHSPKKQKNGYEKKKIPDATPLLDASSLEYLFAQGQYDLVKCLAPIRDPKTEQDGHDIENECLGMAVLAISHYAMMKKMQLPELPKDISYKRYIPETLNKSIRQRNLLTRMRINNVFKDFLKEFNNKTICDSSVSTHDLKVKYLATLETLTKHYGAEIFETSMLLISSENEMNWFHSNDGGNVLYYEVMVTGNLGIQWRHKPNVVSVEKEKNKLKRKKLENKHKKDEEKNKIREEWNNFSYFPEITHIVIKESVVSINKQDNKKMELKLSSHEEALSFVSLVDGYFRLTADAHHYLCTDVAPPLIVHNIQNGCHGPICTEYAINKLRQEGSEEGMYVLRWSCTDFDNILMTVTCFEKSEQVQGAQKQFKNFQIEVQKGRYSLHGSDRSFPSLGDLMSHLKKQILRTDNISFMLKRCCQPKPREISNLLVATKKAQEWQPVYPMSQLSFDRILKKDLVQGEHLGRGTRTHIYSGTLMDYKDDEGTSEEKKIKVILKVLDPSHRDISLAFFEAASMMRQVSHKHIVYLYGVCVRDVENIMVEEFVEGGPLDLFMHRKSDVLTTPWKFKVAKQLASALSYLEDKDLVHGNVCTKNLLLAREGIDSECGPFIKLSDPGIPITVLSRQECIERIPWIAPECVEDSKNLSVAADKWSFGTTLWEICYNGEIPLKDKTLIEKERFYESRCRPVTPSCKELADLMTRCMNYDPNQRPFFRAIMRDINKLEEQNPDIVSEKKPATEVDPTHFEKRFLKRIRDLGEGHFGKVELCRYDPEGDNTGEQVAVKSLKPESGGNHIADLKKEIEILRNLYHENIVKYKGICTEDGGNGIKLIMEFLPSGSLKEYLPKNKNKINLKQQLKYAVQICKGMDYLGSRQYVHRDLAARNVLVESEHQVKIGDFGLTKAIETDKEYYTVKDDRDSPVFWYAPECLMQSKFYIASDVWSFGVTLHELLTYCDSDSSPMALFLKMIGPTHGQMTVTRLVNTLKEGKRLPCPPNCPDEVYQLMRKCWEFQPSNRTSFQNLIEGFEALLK

CN1C/C=C/CCOc2cccc(c2)-c2ccnc(n2)Nc2cccc(c2)C1 [TG02, (16E)-14-methyl-20-oxa-5,7,14,27-tetraazatetracyclo[19.3.1.12,6.18,12]heptacosa-1(25),2(27),3,5,8(26),9,11,16,21,23-decaene]
inhibition at 100 nm (MKK6): less than 50%
inhibition at 100 nm (CDK6): less than 50%
inhibition at 100 nm (Src): less than 50%
most clinically significant toxicities, TG02 combined with RT ([1]; human, in vivo): grade 2 nausea and vomiting and grade 3 neutropenia
significant drug-related toxicities, single agent ([1]; twice a week in older adults): increased liver function tests and grade 3 neutropenia
MTD as single-agent ([1]; twice a week in older adults, probably): ~150 mg per dose
inhibition at 100 nm (CaMKVI): less than 50%
IC50 (JAK1): 59 nM
IC50 (CDK3): 8 nM
inhibition at 100 nm (Chk1): less than 50%
inhibition at 100 nm (PAK2): less than 50%
inhibition at 100 nm (CK1α1): less than 50%
inhibition at 100 nm (Aurora B): less than 50%
inhibition at 100 nm (PDK1): less than 50%
inhibition at 100 nm (IKK-β): less than 50%
MYCN protein and transcript levels (MYCN in DIPG-13p cells): MYCN protein and transcriptional down-regulation
apoptosis (Annexin-PI) ([2]; 48 h, vs DMSO vehicle control): induction of apoptosis; also recorded: increased populations in early apoptosis
viable cells (Annexin negative, PI negative) ([2]; 48 h, vs DMSO vehicle control): decreased viable cells
cell growth ([2]; vs vehicle): diminished cell growth
inhibition at 100 nm (Aurora A): less than 50%
IC50 [3]: 56 nM
inhibition at 100 nm (PKA): less than 50%
inhibition at 100 nm (PDGFRβ): less than 50%
